Assay results reported in patent publication US12448369B2 (Edgewise Therapeutics, Inc., priority 2023, dated 2025).

What was measured:
[1] = tested on: Rabbit Psoas myofibrils (skeletal myosin ATPase); experiment: Myofibril ATPase assay, rabbit psoas (skeletal) myofibrils; format: biochemical
Procedure, shortened: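 Myofibrils homogenized in Triton X-100 buffer were assayed in pH 7.0 PIPES with defined Ca2+/EGTA. Myosin-driven ADP formation was coupled to NADH oxidation, with depletion monitored at 340 nm. Each value is the concentration that lowers activity to 75% of vehicle or, for activators, raises it to 125%.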

[2] = tested on: Porcine atria myofibrils (atrial myosin ATPase); experiment: Myofibril ATPase assay, porcine atria myofibrils; format: biochemical
Procedure, shortened: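 Values are Y75 (concentration cutting ATPase activity to 75% of vehicle) or Y125 (raising it to 125%), taken from 4-parameter logistic fits. Rates come from NADH disappearance at 340 nm in a PK/LDH-coupled assay with porcine atria myofibrils.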

[3] = target: T1, Porcine ventricle myofibrils (ventricular myosin ATPase) (Sus scrofa, UniProt P79293); experiment: Myofibril ATPase assay, porcine ventricle myofibrils; format: biochemical, porcine (Yucatan minipigs)
T1 construct: Myofibrils from porcine cardiac muscle was isolated from the left ventricle of Yucatan minipigs; tissue Exemplar Genetics; host or cells: left ventricle of Yucatan minipigs, myofibrils prepared in house
T1 sequence (P79293 whole entry): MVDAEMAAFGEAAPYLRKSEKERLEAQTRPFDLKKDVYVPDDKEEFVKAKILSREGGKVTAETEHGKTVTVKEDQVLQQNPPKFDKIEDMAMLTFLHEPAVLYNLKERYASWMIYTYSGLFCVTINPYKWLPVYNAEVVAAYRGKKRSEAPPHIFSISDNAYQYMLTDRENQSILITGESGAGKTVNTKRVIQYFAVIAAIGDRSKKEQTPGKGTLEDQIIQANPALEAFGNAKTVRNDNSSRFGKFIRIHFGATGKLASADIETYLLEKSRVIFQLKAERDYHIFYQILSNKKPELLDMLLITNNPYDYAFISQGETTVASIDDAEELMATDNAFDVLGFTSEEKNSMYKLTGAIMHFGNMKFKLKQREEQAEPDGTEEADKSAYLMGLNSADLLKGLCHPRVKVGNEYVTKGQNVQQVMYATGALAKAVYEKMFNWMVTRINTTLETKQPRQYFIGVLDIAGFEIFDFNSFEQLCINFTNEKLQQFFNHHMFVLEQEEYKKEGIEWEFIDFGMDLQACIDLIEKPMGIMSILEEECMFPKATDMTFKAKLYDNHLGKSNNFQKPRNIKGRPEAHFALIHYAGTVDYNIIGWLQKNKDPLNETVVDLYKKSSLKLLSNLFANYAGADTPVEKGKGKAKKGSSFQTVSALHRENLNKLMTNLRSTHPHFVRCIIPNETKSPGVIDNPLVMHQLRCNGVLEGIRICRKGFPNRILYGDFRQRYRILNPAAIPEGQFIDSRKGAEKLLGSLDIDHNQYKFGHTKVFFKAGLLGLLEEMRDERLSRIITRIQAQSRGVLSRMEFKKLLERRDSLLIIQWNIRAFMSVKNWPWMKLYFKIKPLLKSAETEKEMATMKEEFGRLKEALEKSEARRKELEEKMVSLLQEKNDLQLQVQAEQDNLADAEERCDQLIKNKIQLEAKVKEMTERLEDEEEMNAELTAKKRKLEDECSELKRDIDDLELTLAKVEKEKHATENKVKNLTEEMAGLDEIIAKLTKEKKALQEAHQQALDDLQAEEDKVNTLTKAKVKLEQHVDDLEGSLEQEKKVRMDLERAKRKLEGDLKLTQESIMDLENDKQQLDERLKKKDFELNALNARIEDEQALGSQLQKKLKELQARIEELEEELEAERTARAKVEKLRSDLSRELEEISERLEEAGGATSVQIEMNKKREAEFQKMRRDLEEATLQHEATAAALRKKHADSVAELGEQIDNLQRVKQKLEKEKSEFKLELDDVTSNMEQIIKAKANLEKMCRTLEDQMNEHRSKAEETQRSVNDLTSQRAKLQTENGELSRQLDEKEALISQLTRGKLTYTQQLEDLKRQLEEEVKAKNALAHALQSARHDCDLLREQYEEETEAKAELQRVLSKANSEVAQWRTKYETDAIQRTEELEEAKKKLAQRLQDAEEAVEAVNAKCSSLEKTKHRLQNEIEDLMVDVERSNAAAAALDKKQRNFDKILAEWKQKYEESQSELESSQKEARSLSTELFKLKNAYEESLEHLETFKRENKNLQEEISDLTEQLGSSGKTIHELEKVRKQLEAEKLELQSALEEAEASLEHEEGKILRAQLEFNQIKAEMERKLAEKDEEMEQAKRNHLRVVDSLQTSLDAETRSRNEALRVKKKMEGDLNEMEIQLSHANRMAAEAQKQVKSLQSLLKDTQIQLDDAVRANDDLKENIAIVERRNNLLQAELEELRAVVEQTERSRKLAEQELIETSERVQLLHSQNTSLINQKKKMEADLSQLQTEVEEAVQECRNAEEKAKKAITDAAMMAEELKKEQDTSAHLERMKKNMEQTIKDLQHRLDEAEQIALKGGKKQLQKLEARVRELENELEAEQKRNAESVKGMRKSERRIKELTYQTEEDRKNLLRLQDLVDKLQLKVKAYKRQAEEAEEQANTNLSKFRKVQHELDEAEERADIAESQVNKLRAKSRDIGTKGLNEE
Procedure, shortened: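 Test compounds acted on myofibrils isolated from the left ventricle of Yucatan minipigs. ADP formation was coupled via pyruvate kinase/lactate dehydrogenase to NADH oxidation, monitored kinetically at 340 nm over 75 min. Rates relative to vehicle were fitted with a 4-parameter logistic model, reported as Y75 (25% inhibition) or Y125 (activation) concentrations.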

[4] = Y75 value (no ‡ mark), rabbit psoas myofibrils
[5] = Y75 value (no ‡ mark), porcine atria myofibrils
[6] = Y75 value (no ‡ mark), porcine ventricle myofibrils
[7] = rabbit psoas myofibrils, Y75 value
[8] = porcine atria myofibrils, Y75 value (75% activity relative to no compound)
[9] = porcine ventricle myofibrils, Y75 value
[10] = ‡ Y125 value, not a Y75 value (125% activity relative to no compound), rabbit psoas myofibrils

SMILES | Skeletal EC25 [1, 4] [µM] | Atrial EC25 [2, 5] [µM] | Ventricular EC25 [3, 6] [µM] | Skeletal EC25 [1, 7] [µM] | Atrial EC25 [2, 8] [µM] | Ventricular EC25 [3, 9] [µM] | further results
Cc1nc(C#N)ncc1[C@@H](C)NC(=O)Cc1c(C)c2cc(F)ccc2[nH]c1=O [compound 1052] | 0.78 | 0.65 | 7.05 |  |  |  | 
Cc1c(C(F)(F)C(=O)NC(C)c2cccc(C#N)n2)c(=O)[nH]c2ccc(F)c(F)c12 (single isomer, unassigned) [Compound 2587] | 5.65 | 5.60 | 100.00 |  |  |  | 
Cc1cccc([C@H](C)NC(=O)Cc2c(C)c3c(C)nccc3[nH]c2=O)c1 (single isomer, unassigned) [compound 340] |  |  |  | 100.00 | 36.97 | 100.00 | 
Cc1nccc2[nH]c(=O)c(CC(=O)N[C@@H](C)c3cccc(O)n3)c(C)c12 (single isomer, unassigned) [compound 298] |  |  |  | 100.00 | 100.00 | 100.00 | 
C[C@H](NC(=O)Cc1cc2cc(C#N)ccc2[nH]c1=O)c1ccc(F)cc1F [compound 121] | 3.75 | 100.00 | 100.00 |  |  |  | 
Cc1nccc2[nH]c(=O)c(CC(=O)N[C@H]3CNc4cc(F)cc(F)c43)c(C)c12 (single isomer, unassigned) [compound 182] |  |  |  | 1.76 | 8.60 | 35.91 | 
Cc1nccc2[nH]c(=O)c(CC(=O)N[C@@H](C)c3ccc(O)cc3)c(C)c12 (single isomer, unassigned) [compound 329] |  |  |  | 100.00 | 100.00 | 100.00 | 
C[C@@H](NC(=O)C1(c2cc3c(F)c(F)ccc3[nH]c2=O)CC1)c1ccc(F)cc1F [compound 4813] | 0.91 | 0.37 | 100.00 |  |  |  | 
C[C@@H](NC(=O)Cc1c(C#N)c2cc(F)ccc2[nH]c1=O)c1ncc(C#N)cc1F [compound 1094] | 2.26 | 100.00 | 100.00 |  |  |  | 
Cc1nc(C#N)cnc1[C@H](C)NC(=O)C1(c2cc3c(F)c(F)ccc3[nH]c2=O)CC1 (single isomer, unassigned) [compound 4826] | 1.00 | 0.67 | 10.09 |  |  |  | 
Cc1c(C(F)(F)C(=O)N[C@@H](C)c2ncc(C#N)cn2)c(=O)[nH]c2ccc(F)c(C#N)c12 (single isomer, unassigned) [compound 2522] | 0.14 | 0.32 | 0.72 |  |  |  | 
C[C@H](NC(=O)Cc1c(C(F)(F)F)c2ccccc2[nH]c1=O)c1ccc(F)cc1F [compound 129] | 0.04 | 0.21 | 0.75 |  |  |  | 
Cc1c(CC(=O)N[C@@H](C)c2ncc(C#N)cc2F)c(=O)[nH]c2ccc(F)c(C3CC3)c12 [compound 28] | 0.02 | 0.04 | 0.06 |  |  |  | 
Cc1c(CC(=O)N[C@H](C)c2ccc(C#N)cn2)c(=O)[nH]c2cc(F)c(F)cc12 [compound 1112] | 3.86 | 5.01 | 2.09 |  |  |  | 
C[C@@H](NC(=O)[C@H](C)c1cc2c(F)c(F)ccc2[nH]c1=O)c1ncc(C#N)cc1F (single isomer, unassigned) [compound 2598] |  | 0.60 | 1.10 |  |  |  | Skeletal EC25 [1, 10]: 100.00‡ μM
Cc1c([C@H](C)C(=O)N[C@@H](C)c2ccc(F)cc2F)c(=O)[nH]c2ccc(C(F)(F)F)nc12 (single isomer, unassigned) [compound 369] |  |  |  | 15.36 | 0.29 | 60.83 | 

SMILES | Skeletal EC25 [1, 4] [µM] | Atrial EC25 [2, 5] [µM] | Ventricular EC25 [3, 6] [µM] | Skeletal EC25 [1, 7] [µM] | Atrial EC25 [2, 8] [µM] | Ventricular EC25 [3, 9] [µM] | further results
C[C@H](NC(=O)Cc1cc2c(C#N)c(F)ccc2[nH]c1=O)c1ncc(C#N)cn1 (single isomer, unassigned) [compound 2018] |  |  |  |  |  |  | Skeletal EC25 [1, 10]: 100.00‡ μM; Atrial EC25 ([2]; ‡ Y125 value, not a Y75 value (125% activity relative to no compound), porcine atria myofibrils): 100.00‡ μM; Ventricular EC25 ([3]; ‡ Y125 value, not a Y75 value (125% activity relative to no compound), porcine ventricle myofibrils): 100.00‡ μM
Cc1nccc2[nH]c(=O)c(CC(=O)N[C@@H](CO)Cc3ccccc3)c(C)c12 [compound 496] |  |  |  | 100.00 | 100.00 | 100.00 | 
C[C@H](NC(=O)[C@@H](C)c1cc2nc(F)ccc2[nH]c1=O)c1ccc(F)cc1F (single isomer, unassigned) [compound 364] |  |  |  | 0.44 | 1.16 | 4.71 | 
C[C@H](NC(=O)Cc1c(C(F)F)c2c(F)c(F)ccc2[nH]c1=O)c1ccc(F)cc1F [compound 107] | 0.02 | 0.03 | 0.09 |  |  |  | 
Cc1c(C2(C(=O)NC(C)c3cccc(C#N)n3)CC2)c(=O)[nH]c2ccc(F)cc12 (single isomer, unassigned) [Compound 2580] |  | 4.52 | 100.00 |  |  |  | Skeletal EC25 [1, 10]: 17.17‡ μM
C[C@@H](NC(=O)Cc1cc2c(F)c(F)ccc2[nH]c1=O)c1nc(C#N)co1 (single isomer, unassigned) [compound 4006] |  |  |  |  |  |  | Skeletal EC25 ([1]; Y75 value: concentration required to reduce myosin ATP-ase activity by 25%, Rabbit Psoas Prep pCa 25 GEOM_MEAN): 1.11 µM; Atrial EC25 ([2]; Y75 value: concentration required to reduce myosin ATP-ase activity by 25%, Porcine Atria Prep pCa 25 GEOM_MEAN): 0.74 µM; Ventricular EC25 ([3]; Y75 value: concentration required to reduce myosin ATP-ase activity by 25%, Porcine Ventricle Prep pCa 25 GEOM_MEAN): 6.66 µM
Cc1nccc2[nH]c(=O)c(CC(=O)N[C@@H](C)c3ccc(C#N)cc3F)c(Cl)c12 [compound 152] |  |  |  | 0.01 | 0.05 | 0.09 | 
Cc1c(C2(C(=O)N[C@@H](C)c3ncc(C#N)cc3F)CC2)c(=O)[nH]c2ccc(F)c(C(F)(F)F)c12 (single isomer, unassigned) [compound 4802] | 0.14 | 0.20 | 1.00 |  |  |  | 
Cc1nccc2[nH]c(=O)c(CC(=O)N[C@@H](C)c3cnc(C#N)cn3)c(C)c12 [compound 487] |  |  |  | 3.42 | 100.00 | 3.42 | 
C[C@H](NC(=O)Cc1cc2cc(F)c(F)cc2[nH]c1=O)c1cnc(C#N)nc1 [compound 1075] | 8.39 | 16.51 | 15.41 |  |  |  | 
C[C@@H](NC(=O)Cc1c(C2CC2)c2c(F)cccc2[nH]c1=O)c1ncc(C#N)cc1F [compound 1143] | 1.78 | 1.44 | 4.45 |  |  |  | 
Cc1c(CC(=O)N[C@H](C)c2ccc(F)cn2)c(=O)[nH]c2cccc(F)c12 [compound 43] | 14.83 | 100.00 | 100.00 |  |  |  | 
C[C@@H](NC(=O)Cc1c(C(F)(F)F)c2c(C3CC3)nccc2[nH]c1=O)c1ccc(C#N)cn1 (single isomer, unassigned) [compound 3005] |  |  |  | 100.00 | 100.00 | 100.00 | 
Cc1c(CC(=O)N[C@H](C)c2ncc(F)cc2F)c(=O)[nH]c2ccnc(C#N)c12 (single isomer, unassigned) [compound 304] |  |  |  | 1.57 | 17.26 | 100.00 | 
Cc1c(CC(=O)N[C@@H](C)c2ccc(F)cc2F)c(=O)[nH]c2ccnc(F)c12 [compound 391] |  |  |  | 0.01 | 0.05 | 0.29 | 
